Measured values published in patent publication US20260295053A1, “COMPOUNDS FOR DEGRADATION AND INHIBITION OF KRAS (G12D) PROTEIN” (Shenzhen Ionova Life Science Co., Ltd., priority 2023, published 2026).

Columns and labels:
[1] = target: T1, KRAS (G12D) (Homo sapiens, UniProt P01116, G12D); experiment: KRAS (G12D) cellular degradation assay in AsPC-1 cells; type: cell-based; settings: 24 hours, antibody fluorescence (Odyssey CLX), DC50 half-maximal degradation concentration
T1 construct: in-cell western with KRAS G12D antibody after 24 h
T1 sequence (P01116 1-188 isoform P01116-2 G12D): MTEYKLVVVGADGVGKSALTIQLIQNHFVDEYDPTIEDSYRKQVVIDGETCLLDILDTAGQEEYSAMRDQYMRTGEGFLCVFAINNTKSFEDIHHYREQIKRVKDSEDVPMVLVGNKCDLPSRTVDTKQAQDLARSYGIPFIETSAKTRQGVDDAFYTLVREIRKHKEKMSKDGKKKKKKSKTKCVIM
Outline: (§1)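 Degradation: 22,000 cells/well grown to ~90% confluency, 24 h compound, fixed/permeabilised, anti-KRAS G12D + β-actin antibodies, near-IR fluorescence, DC50. Proliferation: 3,500 cells/well overnight, 6 d compound, CellTiter Glo luminescence, IC50. Dosing […]–1.5 nM final, 1:3 steps.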

[2] = system: AsPC-1 cells; experiment: AsPC-1 cell proliferation assay (CellTiter Glo); type: cell-based; settings: 6 days
Outline: as §1

Row | Compound | DC50 [1] [nM] | IC50 ([2]; Homo sapiens, ASPC1, 144 h) [nM] | IC50 [2] [nM]
1 | CCn1nccc1-c1ccc([C@H](CO)NC(=O)[C@@H]2C[C@@H](O)CN2C(=O)[C@H](C(C)C)n2cc(-c3ccc(COc4c(-c5c(C)c(F)c(F)c6[nH]ncc56)c(C5CC5)cc5c(N6C[C@@H]7C[C@H]6CN7)nc(OC[C@H](C)OC)nc45)cc3)nn2)cc1 [Example 57, (2S,4R)-1-((2S)-2-(4-(4-(((4-((1S,4S)-2,5-diazabicyclo[2.2.1]heptan-2-yl)-6-cyclopropyl-7-(6,7-difluoro-5-methyl-1H-indazol-4-yl)-2-((S)-2-methoxypropoxy)quinazolin-8-yl)oxy)methyl)phenyl)-1H-1,2,3-triazol-1-yl)-3-methylbutanoyl)-N—((R)-1-(4-(1-ethyl-1H-pyrazol-5-yl)phenyl)-2-hydroxyethyl)-4-hydroxypyrrolidine-2-carboxamide] | < 10 | < 10 | –
2 | CO[C@@H](C)COc1nc(N2C[C@@H]3C[C@H]2CN3)c2cc(C3CC3)c(-c3c(C)c(F)c(F)c4[nH]ncc34)c(OCc3ccc(-c4cn([C@H](C(=O)N5C[C@H](O)C[C@H]5C(=O)N[C@H](c5ccc(-c6scnc6C)cc5)[C@H](C)O)C(C)C)nn4)cc3)c2n1 [Example 90, (2S,4R)-1-((2S)-2-(4-(4-(((4-((1S,4S)-2,5-diazabicyclo[2.2.1]heptan-2-yl)-6-cyclopropyl-7-(6,7-difluoro-5-methyl-1H-indazol-4-yl)-2-((S)-2-methoxypropoxy)quinazolin-8-yl)oxy)methyl)phenyl)-1H-1,2,3-triazol-1-yl)-3-methylbutanoyl)-4-hydroxy-N-((1R,2S)-2-hydroxy-1-(4-(4-methylthiazol-5-yl)phenyl)propyl)pyrrolidine-2-carboxamide] | < 10 | < 10 | –
3 | CCn1nccc1-c1ccc([C@H](CO)NC(=O)[C@@H]2C[C@@H](O)CN2C(=O)[C@H](C(C)C)n2cc(-c3ccc(COc4c(-c5c(C)c(F)cc6[nH]ncc56)c(C5CC5)cc5c(N6C7CNCC6COC7)nc(OC[C@H](C)OC)nc45)cc3)nn2)cc1 [Example 61, (2S,4R)-1-((2S)-2-(4-(4-(((4-(3-oxa-7,9-diazabicyclo[3.3.1]nonan-9-yl)-6-cyclopropyl-7-(6-fluoro-5-methyl-1H-indazol-4-yl)-2-((S)-2-methoxypropoxy)quinazolin-8-yl)oxy)methyl)phenyl)-1H-1,2,3-triazol-1-yl)-3-methylbutanoyl)-N—((R)-1-(4-(1-ethyl-1H-pyrazol-5-yl)phenyl)-2-hydroxyethyl)-4-hydroxypyrrolidine-2-carboxamide] | 10 to 100 | 10 to 100 | –
4 | CCn1nccc1-c1ccc([C@H](CO)NC(=O)[C@@H]2C[C@@H](O)CN2C(=O)[C@H](C(C)C)n2cc(-c3ccc(COc4c(-c5c(C)c(F)cc6[nH]ncc56)c(C5CC5)cc5c(N6CC7CCC(C6)N7)nc(OC[C@H](C)OC)nc45)cc3)nn2)cc1 (single isomer, unassigned) [Example 9] | 10 to 100 | – | > 1000
5 | CCn1nccc1-c1ccc([C@@H](NC(=O)[C@@H]2C[C@@H](O)CN2C(=O)[C@H](C(C)C)n2cc(-c3ccc(COc4c(-c5c(C)c(F)cc6[nH]ncc56)c(C5CC5)cc5c(N6CCCNCC6)nc(O[C@H]6C[C@H](OC)C6)nc45)cc3)nn2)[C@H](C)O)cc1 [Example 156, (2S,4R)-1-((2S)-2-(4-(4-(((6-cyclopropyl-4-(1,4-diazepan-1-yl)-7-(6-fluoro-5-methyl-1H-indazol-4-yl)-2-((1r,3r)-3-methoxycyclobutoxy)quinazolin-8-yl)oxy)methyl)phenyl)-1H-1,2,3-triazol-1-yl)-3-methylbutanoyl)-N-((1R,2S)-1-(4-(1-ethyl-1H-pyrazol-5-yl)phenyl)-2-hydroxypropyl)-4-hydroxypyrrolidine-2-carboxamide] | < 10 | < 10 | –
6 | CCn1nccc1-c1ccc([C@H](CO)NC(=O)[C@@H]2C[C@@H](O)CN2C(=O)[C@H](C(C)C)n2cc(-c3ccc(COc4c(-c5c(C)c(F)cc6[nH]ncc56)c(C5CC5)cc5c(N(C)[C@H]6CCNC6)nc(O[C@H]6C[C@H](OC)C6)nc45)cc3)nn2)cc1 [Example 165, (2S,4R)-1-((2S)-2-(4-(4-(((6-cyclopropyl-7-(6-fluoro-5-methyl-1H-indazol-4-yl)-2-((1r,3S)-3-methoxycyclobutoxy)-4-(methyl((S)-pyrrolidin-3-yl)amino)quinazolin-8-yl)oxy)methyl)phenyl)-1H-1,2,3-triazol-1-yl)-3-methylbutanoyl)-N—((R)-1-(4-(1-ethyl-1H-pyrazol-5-yl)phenyl)-2-hydroxyethyl)-4-hydroxypyrrolidine-2-carboxamide] | < 10 | < 10 | –
7 | CO[C@@H](C)COc1nc(N2C[C@H]3C[C@@H]2CN3)c2cc(C3CC3)c(-c3c(C)c(F)cc4[nH]ncc34)c(OCc3ccc(-c4cn([C@H](C(=O)N5C[C@H](O)C[C@H]5C(=O)NCc5ccc(-c6scnc6C)cc5)C(C)C)nn4)cc3)c2n1 (single isomer, unassigned) [Example 11A] | 10 to 100 | 10 to 100 | –
8 | CCc1ncccc1C#C[C@H](CO)NC(=O)[C@@H]1C[C@@H](O)CN1C(=O)[C@H](C(C)C)n1cc(-c2ccc(COc3c(-c4c(C)c(F)cc5[nH]ncc45)c(C4CC4)cc4c(N5C[C@@H]6C[C@H]5CN6)nc(OC[C@H](C)OC)nc34)cc2)nn1 [Example 46, (2S,4R)-1-((2S)-2-(4-(4-(((4-((1S,4S)-2,5-diazabicyclo[2.2.1]heptan-2-yl)-6-cyclopropyl-7-(6-fluoro-5-methyl-1H-indazol-4-yl)-2-((S)-2-methoxypropoxy)quinazolin-8-yl)oxy)methyl)phenyl)-1H-1,2,3-triazol-1-yl)-3-methylbutanoyl)-N—((R)-4-(2-ethylpyridin-3-yl)-1-hydroxybut-3-yn-2-yl)-4-hydroxypyrrolidine-2-carboxamide] | 10 to 100 | < 10 | –
9 | CCn1nccc1-c1ccc([C@H](C)NC(=O)[C@@H]2C[C@@H](O)CN2C(=O)[C@H](C(C)C)n2cc(-c3ccc(COc4c(-c5c(C)c(F)cc6[nH]ncc56)c(C5CC5)cc5c(N6C[C@H]7C[C@@H]6CN7)nc(OC[C@H](C)OC)nc45)cc3)nn2)cc1 (single isomer, unassigned) [Example 4B] | > 1000 | – | > 1000
10 | CCn1nccc1-c1ccc([C@@H](NC(=O)[C@@H]2C[C@@H](O)CN2C(=O)[C@H](C(C)C)n2cc(-c3ccc(COc4c(-c5c(C)c(F)cc6[nH]ncc56)c(C5CC5)cc5c(N6CCNCC[C@H]6C)nc(OC[C@H](C)OC)nc45)cc3)nn2)[C@H](C)O)cc1 [Example 201, (2S,4R)-1-((2S)-2-(4-(4-(((6-cyclopropyl-7-(6-fluoro-5-methyl-1H-indazol-4-yl)-2-((S)-2-methoxypropoxy)-4-((R)-7-methyl-1,4-diazepan-1-yl)quinazolin-8-yl)oxy)methyl)phenyl)-1H-1,2,3-triazol-1-yl)-3-methylbutanoyl)-N-((1R,2S)-1-(4-(1-ethyl-1H-pyrazol-5-yl)phenyl)-2-hydroxypropyl)-4-hydroxypyrrolidine-2-carboxamide] | < 10 | < 10 | –
11 | CCn1nccc1-c1ccc([C@H](CO)NC(=O)[C@@H]2C[C@@H](O)CN2C(=O)[C@H](C(C)C)n2cc(-c3ccc(COc4c(-c5c(C)c(F)cc6[nH]ncc56)c(C5CC5)cc5c(N6C[C@@H]7C[C@H]6CN7)nc(OC(COC)C(F)F)nc45)cc3)nn2)cc1 (stereo partly drawn) [Example 83, (2S,4R)-1-((2S)-2-(4-(4-(((4-((1S,4S)-2,5-diazabicyclo[2.2.1]heptan-2-yl)-6-cyclopropyl-2-((1,1-difluoro-3-methoxypropan-2-yl)oxy)-7-(6-fluoro-5-methyl-1H-indazol-4-yl)quinazolin-8-yl)oxy)methyl)phenyl)-1H-1,2,3-triazol-1-yl)-3-methylbutanoyl)-N—((R)-1-(4-(1-ethyl-1H-pyrazol-5-yl)phenyl)-2-hydroxyethyl)-4-hydroxypyrrolidine-2-carboxamide] | < 10 | < 10 | –
12 | Cc1ncsc1-c1ccc([C@@H](NC(=O)[C@@H]2C[C@@H](O)CN2C(=O)[C@H](C(C)C)n2cc(-c3ccc(COc4c(-c5c(C)c(F)cc6[nH]ncc56)c(C5CC5)cc5c(N6C[C@@H]7C[C@H]6CN7)nc(OC6CC7(COC7)C6)nc45)cc3)nn2)[C@@H](C)O)cc1 [Example 150, (2S,4R)-1-((2S)-2-(4-(4-(((2-((2-oxaspiro[3.3]heptan-6-yl)oxy)-4-((1S,4S)-2,5-diazabicyclo[2.2.1]heptan-2-yl)-6-cyclopropyl-7-(6-fluoro-5-methyl-1H-indazol-4-yl)quinazolin-8-yl)oxy)methyl)phenyl)-1H-1,2,3-triazol-1-yl)-3-methylbutanoyl)-4-hydroxy-N-((1R,2R)-2-hydroxy-1-(4-(4-methylthiazol-5-yl)phenyl)propyl)pyrrolidine-2-carboxamide] | < 10 | < 10 | –
13 | CCn1nccc1-c1ccc([C@H](CO)NC(=O)[C@@H]2C[C@@H](O)CN2C(=O)[C@H](C(C)C)n2cc(-c3ccc(COc4c(-c5c(C)c(F)c(C)c6[nH]ncc56)c(C5CC5)cc5c(N6C[C@@H]7C[C@H]6CN7)nc(OC[C@H](C)OC)nc45)cc3)nn2)cc1 [Example 66, (2S,4R)-1-((2S)-2-(4-(4-(((4-((1S,4S)-2,5-diazabicyclo[2.2.1]heptan-2-yl)-6-cyclopropyl-7-(6-fluoro-5,7-dimethyl-1H-indazol-4-yl)-2-((S)-2-methoxypropoxy)quinazolin-8-yl)oxy)methyl)phenyl)-1H-1,2,3-triazol-1-yl)-3-methylbutanoyl)-N—((R)-1-(4-(1-ethyl-1H-pyrazol-5-yl)phenyl)-2-hydroxyethyl)-4-hydroxypyrrolidine-2-carboxamide] | < 10 | < 10 | –
14 | CCn1nccc1-c1ccc([C@H](CO)NC(=O)[C@@H]2C[C@@H](O)CN2C(=O)[C@H](C(C)C)n2cc(-c3ccc(COc4c(-c5c(C)c(F)cc6[nH]ncc56)c(C5CC5)cc5c(N6CC7CCC(C6)N7)nc(OC[C@H](C)OC)nc45)cc3)nn2)cc1 (single isomer, unassigned) [Example 8] | 10 to 100 | – | 10 to 100
